Results on 7 molecules are retold here after ChEMBL document CHEMBL4417633, “Inhibitory polypeptides specific to WNT inhibitors” (2017).

The target of experiment [1] is T1, Dickkopf WNT-signaling pathway inhibitor 1 (Rattus norvegicus) (UniProt A6I0Z0).
T1 sequence (whole entry): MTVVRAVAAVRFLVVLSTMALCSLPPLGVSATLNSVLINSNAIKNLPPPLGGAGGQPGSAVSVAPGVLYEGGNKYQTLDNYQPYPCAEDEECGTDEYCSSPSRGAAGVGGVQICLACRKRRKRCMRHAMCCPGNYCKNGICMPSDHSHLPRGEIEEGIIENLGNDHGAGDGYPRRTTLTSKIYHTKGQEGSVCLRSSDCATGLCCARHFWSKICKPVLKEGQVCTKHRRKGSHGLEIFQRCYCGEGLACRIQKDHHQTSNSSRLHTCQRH
Nature of the experiment: (§1) Inhibition of biotin-labeled rat recombinant DKK1 assessed as reduction in DKK1 interaction with LRP-6/Fc incubated overnight by chemiluminescence based Alpha-screen assay. Background: In Alpha technology, singlet oxygen from a donor bead excites a nearby acceptor bead.

In experiment [2] the target is T2, Dickkopf-related protein 1 (Homo sapiens, UniProt O94907).
T2 sequence (O94907 whole entry): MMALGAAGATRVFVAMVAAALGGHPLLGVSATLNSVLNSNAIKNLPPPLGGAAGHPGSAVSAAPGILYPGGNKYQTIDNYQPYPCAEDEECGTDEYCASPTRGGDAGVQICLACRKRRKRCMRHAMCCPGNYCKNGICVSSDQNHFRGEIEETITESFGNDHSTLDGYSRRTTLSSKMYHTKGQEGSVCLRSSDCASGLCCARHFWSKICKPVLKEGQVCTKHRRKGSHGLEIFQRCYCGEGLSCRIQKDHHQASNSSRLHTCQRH
Nature of the experiment: Inhibition of human DKK1 in MC3T3E1/TetON-Wnt1/STF-Luc#5 cells assessed as DKK1 neutralizing activity by Wnt1-induced TCF/LEF luciferase reporter gene assay. A general note: Reporter assays use an easily measured gene product as a stand-in for the process of interest.

For experiment [3], the target named is T3, Dickkopf-related protein 1 (Homo sapiens) (UniProt O94907).
T3 sequence (whole entry): T2 sequence (O94907 whole entry)
Briefly: (§2) Inhibition of biotin-labeled human recombinant DKK1 assessed as reduction in DKK1 interaction with LRP-6/Fc incubated overnight by chemiluminescence based Alpha-screen assay.

The target in experiment [4] is T4, Dickkopf WNT-signaling pathway inhibitor 1 (Rattus norvegicus, UniProt A6I0Z0).
T4 sequence (A6I0Z0 whole entry): T1 sequence (whole entry)
Described as §1.

For experiment [5], the target named is T2, Dickkopf-related protein 1. The experiment is described as §2.

Activity calls are given as the source filed them. No cut-off for these calls is given here. Where a SMILES comes first, the peptide text is derived from it.

Usually IC50 stands for the concentration at which inhibition is half-maximal. On to `CSCC[C@H](NC(=O)[C@@H]1CCCN1C(=O)[C@H](Cc1cnc[nH]1)NC(=O)[C@H](CS)NC(=O)[C@@H]1CCCN1C(=O)[C@@H]1CCCN1C(=O)[C@H](CC(=O)O)NC(=O)[C@H](CC(N)=O)NC(=O)[C@H](CCCNC(=N)N)NC(=O)[C@H](CS)NC(=O)[C@H](CCC(N)=O)NC(=O)[C@H](Cc1ccccc1)NC(=O)[C@H](Cc1ccc(O)cc1)NC(=O)[C@@H]1CCCN1C(=O)[C@H](C)NC(=O)[C@@H]1CCCN1C(=O)[C@@H](N)CS)C(=O)N[C@@H](CC(=O)O)C(=O)N[C@@H](Cc1c[nH]c2ccccc12)C(=O)N[C@@H](CCCNC(=N)N)C(=O)N[C@@H](CS)C(=O)N[C@@H](CC(=O)O)C(=O)NCC(=O)N[C@@H](Cc1ccccc1)C(=O)N1CCC[C@H]1C(=O)N[C@@H](CC(=O)O)C(=O)N[C@@H](CS)C(=O)N[C@H](C(=O)N[C@@H](CC(=O)O)C(=O)NCC(=O)N[C@@H](CO)C(=O)N[C@@H](CC(=O)O)C(=O)N[C@@H](CCC(=O)O)C(=O)N[C@@H](CCCCN)C(=O)NCC(=O)N[C@@H](CS)C(=O)NCC(=O)NCC(=O)NCC(=O)NCC(=O)O)C(C)C` (H-CPAPYFQCRNDPPCHPMDWRCDGFPDCVDGSDEKGCGGGG-OH), for which the inhibition result in experiment [1] and in experiment [3] was “Active” each time. In experiment [2], the IC50 lay within 0.8 to 3 nM.

For the molecule `CC[C@H](C)[C@H](NC(=O)[C@H](CC(C)C)NC(=O)[C@@H]1CCCN1C(=O)[C@H](Cc1ccccc1)NC(=O)[C@H](CS)NC(=O)[C@H](CCSC)NC(=O)[C@H](CCCCN)NC(=O)[C@H](CC(=O)O)NC(=O)[C@@H]1CCCN1C(=O)[C@H](CS)NC(=O)[C@H](CCSC)NC(=O)[C@H](Cc1ccccc1)NC(=O)[C@H](CCC(=O)O)NC(=O)[C@H](CC(N)=O)NC(=O)[C@H](CC(C)C)NC(=O)[C@@H]1CCCN1C(=O)[C@@H](N)CS)C(=O)N[C@@H](Cc1ccccc1)C(=O)N[C@@H](CC(C)C)C(=O)N[C@@H](CS)C(=O)N[C@@H](CC(=O)O)C(=O)NCC(=O)N[C@@H](CCC(=O)O)C(=O)N[C@@H](CC(N)=O)C(=O)N[C@@H](CC(=O)O)C(=O)N[C@@H](CS)C(=O)N[C@@H](Cc1cnc[nH]1)C(=O)N[C@@H](CC(=O)O)C(=O)NCC(=O)N[C@@H](CO)C(=O)N[C@@H](CC(=O)O)C(=O)N[C@@H](CCC(=O)O)C(=O)N[C@@H](C)C(=O)N[C@@H](Cc1ccc(O)cc1)C(=O)N[C@@H](CS)C(=O)N1CCC[C@H]1C(=O)N[C@@H](CO)C(=O)N[C@@H](CCCNC(=N)N)C(=O)N[C@H](C(=O)O)[C@@H](C)O` (H-CPLNEFMCPDKMCFPLIFLCDGENDCHDGSDEAYCPSRT-OH), the IC50 in experiment [4] and in experiment [5] was ≤ 1 nM each time.

On to `CC[C@H](C)[C@H](NC(=O)[C@H](CC(N)=O)NC(=O)CNC(=O)[C@H](CS)NC(=O)[C@H](CCC(N)=O)NC(=O)[C@H](Cc1ccccc1)NC(=O)[C@H](Cc1ccc(O)cc1)NC(=O)[C@H](CO)NC(=O)[C@H](C)NC(=O)[C@@H]1CCCN1C(=O)[C@@H](N)CS)C(=O)N[C@@H](CC(N)=O)C(=O)N[C@@H](Cc1cnc[nH]1)C(=O)N[C@@H](CS)C(=O)N[C@@H](Cc1ccc(O)cc1)C(=O)N1CCC[C@H]1C(=O)N[C@H](C(=O)N[C@@H](CCC(=O)O)C(=O)N[C@@H](Cc1c[nH]c2ccccc12)C(=O)N[C@@H](CCCNC(=N)N)C(=O)N[C@@H](CS)C(=O)N[C@@H](CC(=O)O)C(=O)NCC(=O)N[C@@H](Cc1ccccc1)C(=O)N[C@@H](CCC(N)=O)C(=O)N[C@@H](CC(=O)O)C(=O)N[C@@H](CS)C(=O)N[C@@H](CC(=O)O)C(=O)N[C@@H](CC(=O)O)C(=O)NCC(=O)N[C@@H](CO)C(=O)N[C@@H](CC(=O)O)C(=O)N[C@@H](CCC(=O)O)C(=O)N[C@@H](Cc1ccc(O)cc1)C(=O)N[C@H](C(=O)N[C@@H](CS)C(=O)N1CCC[C@H]1C(=O)N[C@@H](Cc1ccc(O)cc1)C(=O)N[C@@H](CCCNC(=N)N)C(=O)N[C@H](C(=O)O)[C@@H](C)O)C(C)C)C(C)C` (H-CPASYFQCGNINHCYPVEWRCDGFQDCDDGSDEYVCPYRT-OH), for which the IC50 in experiment [4] and in experiment [5] was ≤ 1 nM in each case.

On to `CSCC[C@H](NC(=O)[C@H](Cc1ccccc1)NC(=O)[C@H](CCC(=O)O)NC(=O)[C@H](CC(N)=O)NC(=O)[C@H](CCCNC(=N)N)NC(=O)[C@@H]1CCCN1C(=O)[C@@H](N)CS)C(=O)N[C@@H](CS)C(=O)N[C@@H](C)C(=O)N[C@@H](CC(=O)O)C(=O)N[C@@H](CCCCN)C(=O)N[C@@H](CCSC)C(=O)N[C@@H](CS)C(=O)N[C@@H](Cc1ccccc1)C(=O)N1CCC[C@H]1C(=O)N[C@H](C(=O)N[C@@H](CO)C(=O)N[C@@H](Cc1ccccc1)C(=O)N[C@@H](CC(C)C)C(=O)N[C@@H](CS)C(=O)N[C@@H](CC(=O)O)C(=O)NCC(=O)N[C@@H](CCC(=O)O)C(=O)N[C@@H](CC(N)=O)C(=O)N[C@@H](CC(=O)O)C(=O)N[C@@H](CS)C(=O)N[C@@H](CCC(=O)O)C(=O)N[C@@H](CC(=O)O)C(=O)NCC(=O)N[C@@H](CO)C(=O)N[C@@H](CC(=O)O)C(=O)N[C@@H](CCC(=O)O)C(=O)N[C@@H](CC(=O)O)C(=O)N[C@@H](Cc1ccc(O)cc1)C(=O)N[C@@H](CS)C(=O)N1CCC[C@H]1C(=O)N[C@@H](CO)C(=O)N[C@@H](CCCNC(=N)N)C(=O)N[C@H](C(=O)O)[C@@H](C)O)C(C)C` (H-CPRNEFMCADKMCFPVSFLCDGENDCEDGSDEDYCPSRT-OH), for which the IC50 in experiment [4] and in experiment [5] was ≤ 1 nM each time.

As to `CC[C@H](C)[C@H](NC(=O)[C@H](CC(C)C)NC(=O)[C@@H]1CCCN1C(=O)[C@H](Cc1ccccc1)NC(=O)[C@H](CS)NC(=O)[C@H](CCSC)NC(=O)[C@H](CCCCN)NC(=O)[C@H](CC(=O)O)NC(=O)[C@H](C)NC(=O)[C@H](CS)NC(=O)[C@H](CCSC)NC(=O)[C@H](Cc1ccccc1)NC(=O)[C@H](CCC(=O)O)NC(=O)[C@H](CC(N)=O)NC(=O)[C@H](CO)NC(=O)[C@@H]1CCCN1C(=O)[C@@H](N)CS)C(=O)N[C@@H](Cc1ccccc1)C(=O)N[C@@H](CC(C)C)C(=O)N[C@@H](CS)C(=O)N[C@@H](CC(=O)O)C(=O)NCC(=O)N[C@@H](CCC(=O)O)C(=O)N[C@@H](CC(N)=O)C(=O)N[C@@H](CC(=O)O)C(=O)N[C@@H](CS)C(=O)N[C@@H](CCC(=O)O)C(=O)N[C@@H](CC(=O)O)C(=O)NCC(=O)N[C@@H](CO)C(=O)N[C@@H](CC(=O)O)C(=O)N[C@@H](CCC(=O)O)C(=O)N[C@H](C(=O)N[C@@H](CC(=O)O)C(=O)N[C@@H](CS)C(=O)N1CCC[C@H]1C(=O)N[C@@H](CO)C(=O)N[C@@H](CCCNC(=N)N)C(=O)N[C@H](C(=O)O)[C@@H](C)O)C(C)C` (H-CPSNEFMCADKMCFPLIFLCDGENDCEDGSDEVDCPSRT-OH), the IC50 in experiment [4] and in experiment [5] was 40 to 80 nM each time.

As to `CSCC[C@H](NC(=O)[C@@H]1CCCN1C(=O)[C@H](Cc1ccc(O)cc1)NC(=O)[C@H](CS)NC(=O)[C@H](Cc1cnc[nH]1)NC(=O)[C@H](CC(N)=O)NC(=O)[C@H](CC(N)=O)NC(=O)[C@H](CC(N)=O)NC(=O)[C@H](CCCNC(=N)N)NC(=O)[C@H](CS)NC(=O)[C@H](CCC(N)=O)NC(=O)[C@H](Cc1ccccc1)NC(=O)[C@H](Cc1ccc(O)cc1)NC(=O)[C@H](CO)NC(=O)[C@H](C)NC(=O)[C@@H]1CCCN1C(=O)[C@@H](N)CS)C(=O)N[C@@H](CCC(=O)O)C(=O)N[C@@H](Cc1c[nH]c2ccccc12)C(=O)N[C@@H](CCCNC(=N)N)C(=O)N[C@@H](CS)C(=O)N[C@@H](CC(=O)O)C(=O)NCC(=O)N[C@@H](Cc1ccccc1)C(=O)N[C@@H](CCC(N)=O)C(=O)N[C@@H](CC(=O)O)C(=O)N[C@@H](CS)C(=O)N[C@@H](CCC(=O)O)C(=O)N[C@@H](CC(=O)O)C(=O)NCC(=O)N[C@@H](CO)C(=O)N[C@@H](CC(=O)O)C(=O)N[C@@H](CCC(=O)O)C(=O)N[C@@H](CCCCN)C(=O)NCC(=O)N[C@@H](CS)C(=O)N1CCC[C@H]1C(=O)N[C@@H](Cc1ccc(O)cc1)C(=O)N[C@@H](CCCNC(=N)N)C(=O)N[C@H](C(=O)O)[C@@H](C)O` (H-CPASYFQCRNNNHCYPMEWRCDGFQDCEDGSDEKGCPYRT-OH), the IC50 in experiment [4] and in experiment [5] was 40 to 80 nM throughout.

On to `CC[C@H](C)[C@H](NC(=O)[C@H](CCCNC(=N)N)NC(=O)[C@H](CS)NC(=O)[C@H](CCC(N)=O)NC(=O)[C@H](Cc1ccccc1)NC(=O)[C@H](Cc1ccc(O)cc1)NC(=O)[C@H](CO)NC(=O)[C@@H](NC(=O)[C@@H]1CCCN1C(=O)[C@@H](N)CS)C(C)C)C(=O)N[C@@H](Cc1ccc(O)cc1)C(=O)N[C@@H](CC(N)=O)C(=O)N[C@@H](Cc1cnc[nH]1)C(=O)N[C@@H](CS)C(=O)N[C@@H](Cc1ccc(O)cc1)C(=O)N1CCC[C@H]1C(=O)N[C@@H](CCSC)C(=O)N[C@@H](CCC(=O)O)C(=O)N[C@@H](Cc1c[nH]c2ccccc12)C(=O)N[C@@H](CCCNC(=N)N)C(=O)N[C@@H](CS)C(=O)N[C@@H](CC(=O)O)C(=O)NCC(=O)N[C@@H](Cc1ccccc1)C(=O)N[C@@H](CCC(=O)O)C(=O)N[C@@H](CC(=O)O)C(=O)N[C@@H](CS)C(=O)N[C@H](C(=O)N[C@@H](CC(=O)O)C(=O)NCC(=O)N[C@@H](CO)C(=O)N[C@@H](CC(=O)O)C(=O)N[C@@H](CCC(=O)O)C(=O)N[C@@H](CCCCN)C(=O)NCC(=O)N[C@@H](CS)C(=O)N1CCC[C@H]1C(=O)N[C@@H](Cc1ccc(O)cc1)C(=O)N[C@@H](CCCNC(=N)N)C(=O)N[C@H](C(=O)O)[C@@H](C)O)C(C)C` (H-CPVSYFQCRIYNHCYPMEWRCDGFEDCVDGSDEKGCPYRT-OH), for which the IC50 in experiment [4] and in experiment [5] was ≤ 1 nM in each case.
